Data as given in patent US7993922B2, “Three-dimensional tissue equivalent using macromass culture” (Reliance Life Sciences Pvt. Ltd., priority 2002, dated 2011).

Legend:
[1] = system: tissue-equivalent of the present invention (non-dividing fibroblasts); assay: Camptothecin toxicity on the non-dividing model (tissue equivalent), MTT; assay type: cell-based, human; details: non-dividing cells
Description: (§1) As mentioned previously, the tissue equivalent of the present invention could be used as an in vitro model of normal non-dividing cells for safety testing of anti-cancer compounds. To test its usefulness as such a model, dividing monolayers of fibroblasts and the tissue-equivalent of the present invention were incubated with or without (control) camptothecin, an anti-cancer drug known to act on dividing cells and not on non-dividing cells. Both were incubated for the same period of time. Then the metabolic activity was assessed by incubating both groups in MTT, which was quantified by spectrophotometry. […] Leroy et al. Ann. N.Y. Acad. Sci. (2000) 922:1-10. Thus, these are normal cells in a non-dividing state, which could be a model of the normal quiescent cells of the human body, in contrast to the abnormal tumour cells which are rapidly dividing.

[2] = system: dividing monolayers of fibroblasts; assay: Camptothecin toxicity on dividing monolayers, MTT; assay type: cell-based, human; details: actively dividing monolayer cells
Description: as §1

[3] = system: neuropathic diabetic foot ulcers; details: topical; cited from earlier work

| Compound | Toxicity (metabolic activity, MTT) [1] | Toxicity (metabolic activity, MTT) [2] | Acceleration in the healing of ulcers [3] [%] |
| --- | --- | --- | --- |
| CC[C@@]1(O)C(=O)OCc2c1cc1n(c2=O)Cc2cc3ccccc3nc2-1 [camptothecin] | no toxicity | toxic | – |
| Regranex® Becaplermin: FDA-approved topical platelet-derived growth factor (PDGF) for chronic diabetic neuropathic ulcers | – | – | 15 |
